Measured values published in publication PMC7596181 (Frontiers in Immunology, 2020).

What was measured:
human TLR4 [1] = molecular target: T1, human TLR4 (Homo sapiens, UniProt O00206+Q9Y6Y9); experiment: SEAP assay, agonist dose response in human TLR4 HEK-Blue reporter cells; assay type: cell-based; parameters: host or cells: HEK-Blue (HEK293-derived) reporter cells; details: human TLR4 HEK-Blue reporter cells
Experimental: Human and mouse HEK-Blue reporter cells express human or mouse CD14, MD2, and TLR4 and secreted embryonic alkaline phosphatase (SEAP) under control of a promoter with binding sites for NFκB and AP-1 transcription factors (InvivoGen cat. nos. hkb-htlr4 and hkb-mtlr4). Cells were cultured as directed by the supplier, with the exception that Glutamax (ThermoFisher cat. no. 10569010) was used in place of L-glutamine, and TrypLE Express (ThermoFisher cat. no. 12605010) was used to release adherent cells for each passage. BALB/c mouse RAW264.7 and human THP-1 cells (ATCC® cat. nos. TIB-71 and TIB-202) were cultured in DMEM (4.5 g/L D-Glucose with 2 mM L-glutamine, 1 mM sodium pyruvate, 100 U/ml penicillin and 100 μg/ml streptomycin) supplemented with 10% heat-inactivated FBS. THP-1 cells were exposed to phorbol-12-myristate-13-acetate (PMA, InvivoGen cat no. tlrl-pma), 5 ng/ml, for 48 h prior to treatment with TLR4 agonists. Bone marrow-derived dendritic cells (BMDCs) were generated using C57BL/6 mouse femurs following the exact method published by Lutz et al. ([29]) except that 5 rather than 20 ng/ml recombinant GM-CSF was used to differentiate the DC. Human peripheral blood […] (PBMCs) were prepared from venous blood of healthy volunteers that had been collected using sodium citrate as anti-coagulant, 20 ml of which was mixed with 15 ml calcium- and magnesium-free Hank’s Balanced Saline Solution (HBSS) and then laid over 6 ml Histopaque®-1077 (1.077 g/ml, Sigma-Aldrich cat no. 10771) for density gradient centrifugation. The buffy coat layer was collected by pipette, washed once in HBSS, once in serum-free RPMI-1640, and then the PBMCs were resuspended in RPMI-1640 supplemented with 100 U/ml penicillin, 100 µg/ml streptomycin, 1 mM Na-Pyruvate, 2 mM L-glutamine, 50 μM βME and 10% heat-inactivated, male AB human serum for culture.
(§1) SEAP assays were performed to evaluate the extent to which TLR4 signaling was activated in HEK-Blue reporter cells expressing mouse or human receptors (CD14, MD2 and TLR4). Reporter cells were harvested when 70–80% confluent and plated in 96-well, flat-bottom microtiter plates either 1 h, one day or two days (5 × 10^4, 4 × 10^4 or 2 × 10^4 cells/well, respectively) before addition of TLR4 agonists for 18–24 h. Culture supernatants were transferred to U-bottom microtiter plates, centrifuged and transferred again to microtiter plates to ensure reporter cells were not present. The culture supernatants were added to QUANTI-BLUE substrate following instructions provided by the manufacturer (InvivoGen cat. nos. rep-qbl or rep-qbs) and incubated at 37°C in a tissue culture incubator. At successive intervals beginning 10 min after mixing the supernatants and substrate, the plates were placed in an Emax plate reader (Molecular Devices LLC) and optical density was measured at visible light wavelength […] (OD650). The shortest incubations at which dose response curve fits produced maximal R^2 ‘goodness of fit’ values, as determined by GraphPad Prism software, were used for analysis.
Pharmacological profiles of the TLR4 reagents were generated by performing dose response curves in one of four formats. 1) Agonist potency and efficacy (EC50 and height of dose plateau, respectively) were measured by diluting TLR4 reagents successively in complete culture medium [DMEM or RPMI supplemented with fetal bovine serum (FBS) or RPMI supplemented with human serum, depending on cell-type]. Half-log step dilutions were performed in 96-well, U-bottom microtiter plates using a multichannel pipette to transfer and mix the suspensions, with fresh tips used for each dilution step. One-tenth (20 μl) volumes from wells of the dilution plate were then transferred to wells containing cells that had been plated in nine-tenth volumes (180 μl) of culture medium. […]

human TLR4 [2] = molecular target: T1, human TLR4; experiment: Inhibition curves (IC50 format): antagonist diluted in a fixed concentration of reference agonist, human TLR4 HEK-Blue SEAP; assay type: cell-based; parameters: host or cells: HEK-Blue (HEK293-derived) reporter cells; details: for inhibition of 3D-6A-PHAD stimulation: fixed 3D-6A-PHAD 300 nM; for IC50: 95% CI given; for inhibition of PHAD stimulation: fixed PHAD 1 μM, 22 h
Experimental: as §1
Pharmacological profiles of the TLR4 reagents were generated by performing dose response curves in one of four formats. 1) Agonist potency and efficacy (EC50 and height of dose plateau, respectively) were measured by diluting TLR4 reagents successively in complete culture medium [DMEM or RPMI supplemented with fetal bovine serum (FBS) or RPMI supplemented with human serum, depending on cell-type]. Half-log step dilutions were performed in 96-well, U-bottom microtiter plates using a multichannel pipette to transfer and mix the suspensions, with fresh tips used for each dilution step. One-tenth (20 μl) volumes from wells of the dilution plate were then transferred to wells containing cells that had been plated in nine-tenth volumes (180 μl) of culture medium. 2) Mixed agonist–antagonist potency and efficacy were measured by mixing a TLR4 agonist with a candidate antagonist at a fixed ratio and then performing half-log step dilutions before treating HEK reporter cells. Analysis of values obtained from SEAP assays of culture supernatants was then performed as described for preparations containing agonist alone, above. 3) Competitive vs allosteric or non-competitive antagonist type was evaluated by diluting a reference agonist within a fixed concentration of a candidate inhibitor in half-log steps, treating HEK reporter cells, performing SEAP assays and then analyzing the data as described for agonist assays, above. Competitive antagonists are characterized by values that reach the same dose plateau as for a reference, full agonist, while shifting potency to higher EC50 values. […] 4) Inhibitory potency (IC50) was measured by diluting antagonists within a fixed concentration of a reference agonist, treating HEK reporter cells and performing SEAP assays as described.

T1 sequence (O00206 24-839): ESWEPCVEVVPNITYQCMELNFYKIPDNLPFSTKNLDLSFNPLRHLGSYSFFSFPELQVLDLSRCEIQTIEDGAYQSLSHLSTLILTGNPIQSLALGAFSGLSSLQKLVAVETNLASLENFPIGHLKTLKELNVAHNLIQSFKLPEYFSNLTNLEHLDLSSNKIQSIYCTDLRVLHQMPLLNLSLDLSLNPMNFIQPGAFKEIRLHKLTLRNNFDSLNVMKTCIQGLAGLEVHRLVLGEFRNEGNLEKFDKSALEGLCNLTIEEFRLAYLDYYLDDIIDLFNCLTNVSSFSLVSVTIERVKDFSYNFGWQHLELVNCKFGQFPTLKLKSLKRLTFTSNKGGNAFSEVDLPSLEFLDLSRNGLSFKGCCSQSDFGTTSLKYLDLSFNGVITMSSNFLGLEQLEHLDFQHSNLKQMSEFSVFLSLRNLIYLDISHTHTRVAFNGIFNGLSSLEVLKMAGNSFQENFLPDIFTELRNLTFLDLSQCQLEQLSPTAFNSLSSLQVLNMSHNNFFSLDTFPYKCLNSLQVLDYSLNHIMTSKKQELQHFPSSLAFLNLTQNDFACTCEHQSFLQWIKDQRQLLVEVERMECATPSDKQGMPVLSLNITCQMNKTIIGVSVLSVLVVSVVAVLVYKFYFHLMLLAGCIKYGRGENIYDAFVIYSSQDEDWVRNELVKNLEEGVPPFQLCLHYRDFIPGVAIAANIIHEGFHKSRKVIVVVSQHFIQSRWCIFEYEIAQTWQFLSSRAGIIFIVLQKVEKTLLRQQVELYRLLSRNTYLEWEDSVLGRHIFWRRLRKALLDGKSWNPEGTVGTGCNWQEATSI
T1 sequence (Q9Y6Y9 17-160 limits assumed): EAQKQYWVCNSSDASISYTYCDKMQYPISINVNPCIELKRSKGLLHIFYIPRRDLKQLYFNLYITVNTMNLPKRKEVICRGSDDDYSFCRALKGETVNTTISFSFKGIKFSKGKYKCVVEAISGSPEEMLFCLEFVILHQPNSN

## CCCCCCCCCCCC(=O)OC(CCCCCCCCCCC)CC(=O)NC1C(OCC2OC(O)C(NC(=O)CC(O)CCCCCCCCCCC)C(O)C2O)OC(CO)C(OP(=O)(O)O)C1OC(=O)CC(O)CCCCCCCCCCC (centres unmarked) [ML4A]
Human TLR4 [1]
  agonist profile: all but inactive
Human TLR4 [2]
  inhibition of 3D-6A-PHAD stimulation: functioned as inhibitors
  inhibition of PHAD stimulation: showed inhibitory potential
Human TLR4 [2]; fixed PHAD 30 nM, peak dose 31.6 μM
  extent of inhibition at high dose: approach a bottom plateau rather than achieving full inhibition
Human TLR4 [2]; fixed PHAD 30 nM
  IC50: 400 nM

## CCCCCCCCCCCC(=O)OC(CCCCCCCCCCC)CC(=O)NC1C(OCC2OC(O)C(NC(=O)CC(O)CCCCCCCCCCC)C(O)C2O)OC(CO)C(OP(=O)(O)O)C1O (centres unmarked) [ML3]
Human TLR4 [1]
  agonist profile: largely inactive
Human TLR4 [2]
  inhibition of 3D-6A-PHAD stimulation: functioned as inhibitors
  inhibition of PHAD stimulation: showed inhibitory potential
Human TLR4 [2]; fixed PHAD 30 nM
  IC50: 1320 nM

## CCCCCCCCCCCCCCCC(=O)OC(CCCCCCCCCCC)CC(=O)NC1C(O)OC(COC2OC(CO)C(OP(=O)(O)O)C(O)C2NC(=O)CC(CCCCCCCCCCC)OC(=O)CCCCCCCCCCC)C(O)C1O (centres unmarked) [ML4B]
Human TLR4 [1]
  agonist profile: largely inactive
Human TLR4 [2]
  inhibition of PHAD stimulation: only ML3 and ML4A showed inhibitory potential
